Assay [1] has as its target T1, CDK4/cyclin D3 (Homo sapiens, UniProt P11802).
T1 construct: purchased Carna Biosciences, Inc. QS S Assist CDK4/Cyclin D3_FP Kit
In words: Human CDK4/cyclin D3 inhibitory activity (QS S Assist CDK4/Cyclin D3_FP Kit, IMAP fluorescent polarization). The assay is classed as biochemical. Conditions: read-out: CDK4 Activity symbol. An outline of the steps:
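Kinase reactions used kit CDK4/cyclin D3 at 12.5–25 ng/well with the kit ATP/substrate/metal mix in 20 mM HEPES (pH 7.4), 0.01% Tween20 and 2 mM DTT, run 45 min at room temperature. Phosphorylation was detected by IMAP fluorescence polarization (ex 485/em 535 nm) after 30 min binding in the dark. IC50 was fitted from percent inhibition against DMSO controls with and without enzyme.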

The target in assay [2] is T2, CDK2/cyclin A2 (Homo sapiens, UniProt P24941).
T2 construct: purchased Carna Biosciences, Inc. QS S Assist CDK2/Cyclin A2_FP Kit
In words: Human CDK2/cyclin A2 inhibitory activity (QS S Assist CDK2/Cyclin A2_FP Kit, IMAP fluorescent polarization). The class given is biochemical. Conditions: read-out: CDK2 Activity symbol. An outline of the steps:
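Kit CDK2/cyclin A2 (2.5 ng/well) was reacted with kit ATP/substrate/metal in 20 mM HEPES pH 7.4, 0.01% Tween 20 and 2 mM DTT for 60 min at room temperature. IMAP binding reagent was added for 30 min, then fluorescence polarization was read at 485/535 nm. IC50 came from dose-response fitting of percent inhibition.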

pIC50: −log10 of the molar value.

T1 sequence (P11802 whole entry): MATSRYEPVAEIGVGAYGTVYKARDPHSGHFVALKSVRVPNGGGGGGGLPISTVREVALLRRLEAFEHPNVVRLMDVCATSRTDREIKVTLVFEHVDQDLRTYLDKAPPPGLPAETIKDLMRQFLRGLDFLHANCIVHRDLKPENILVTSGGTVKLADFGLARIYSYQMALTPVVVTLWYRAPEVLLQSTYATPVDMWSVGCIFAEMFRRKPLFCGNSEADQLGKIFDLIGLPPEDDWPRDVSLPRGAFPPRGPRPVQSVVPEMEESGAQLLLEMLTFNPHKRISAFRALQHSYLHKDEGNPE
T1 sequence (P30281 whole entry partner): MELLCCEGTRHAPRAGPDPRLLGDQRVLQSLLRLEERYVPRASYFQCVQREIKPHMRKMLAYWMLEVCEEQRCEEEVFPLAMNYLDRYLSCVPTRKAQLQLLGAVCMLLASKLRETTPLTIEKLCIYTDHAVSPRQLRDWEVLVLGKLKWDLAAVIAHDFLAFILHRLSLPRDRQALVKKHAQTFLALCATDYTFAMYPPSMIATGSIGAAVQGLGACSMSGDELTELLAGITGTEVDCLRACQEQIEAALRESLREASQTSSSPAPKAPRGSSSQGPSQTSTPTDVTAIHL

Consider `C[C@@H](O)c1cc2cnc(Nc3ccc4c(n3)CCN(C3COC3)C4)nc2c(N2CCCCC2)n1` [Compound 161], for which the pIC50 is greater than 8.00 in assay [1] and no more than 7.00 in assay [2].
As for `C[C@@H](O)c1cc2cnc(Nc3ccc4c(n3)CCN(CCN3CCOCC3)C4)nc2c(N2CCCCC2)n1` [Compound 162], the pIC50 in assay [1] was greater than 8.00; in assay [2] it was no more than 7.00.
On to `C[C@@H](O)c1cc2cnc(Nc3ccc4c(n3)CCN(S(=O)(=O)C3CCNCC3)C4)nc2c(N2CCCCC2)n1` [Compound 163, (R)-1-(8-(piperidin-1-yl)-2-((6-(piperidin-4-ylsulfonyl)-5,6,7,8-tetrahydro-1,6-naphthyridin-2-yl)amino)pyrido[3,4-d]pyrimidin-6-yl)ethanol], for which the pIC50 in assay [1] was greater than 8.00; in assay [2], no more than 7.00.
In the case of `C[C@@H](O)c1cc2cnc(Nc3ccc(OC4CCNCC4)cn3)nc2c(N2CCCCC2)n1` [Compound 164], the figures for the pIC50 in assay [1] and in assay [2] were greater than 8.00 and no more than 7.00, respectively.
For `C[C@@H](O)c1cc2cnc(Nc3ccc(OC4CCN(CCO)CC4)cn3)nc2c(N2CCCCC2)n1` [Compound 165], in that order: greater than 8.00 and no more than 7.00.
For `C[C@H](CO)c1cc2cnc(Nc3ccc4c(n3)CCNC4)nc2c(N2CCCCC2)n1` [Compound 166] the same measures were 7.00 to 8.00 and no more than 7.00.
For the compound `C[C@@H](CO)c1cc2cnc(Nc3ccc(CN4CCN(CCO)CC4)cn3)nc2c(N2CCCCC2)n1` [Compound 167], the pIC50 is greater than 8.00 in assay [1] and no more than 7.00 in assay [2].
With `C[C@@H](O)Cc1cc2cnc(Nc3ccc(CN4CCN(CCO)CC4)cn3)nc2c(N2CCCCC2)n1` [Compound 168], the values for the pIC50 in assay [1] and in assay [2] were 7.00 to 8.00 and no more than 7.00, respectively.
Turning to `C[C@@H](O)Cc1cc2cnc(Nc3ccc(N4CCNCC4=O)cn3)nc2c(N2CCCCC2)n1` [Compound 169], the pIC50 was 7.00 to 8.00 in assay [1] and no more than 7.00 in assay [2].
On to `C[C@@H](O)Cc1cc2cnc(Nc3ccc4c(n3)CCN(CCO)C4)nc2c(N2CCCCC2)n1` [Compound 170], for which the pIC50 was 7.00 to 8.00 in assay [1] and no more than 7.00 in assay [2].
On to `C[C@@H](CO)c1cc2cnc(Nc3ccc4c(n3)CCN(CCO)C4)nc2c(N2CCCCC2)n1` [Compound 171], for which the pIC50 in assay [1] is 7.00 to 8.00; in assay [2], no more than 7.00.
As for `C[C@@H](O)c1cc2cnc(Nc3ccc(CN4CCN(C)CC4)cn3)nc2c(N2CCC2)n1` [Compound 172], the pIC50 was 7.00 to 8.00 in assay [1] and no more than 7.00 in assay [2].
Consider `C[C@@H](O)c1cc2cnc(Nc3ccc(CN4CCN(C)CC4)cn3)nc2c(N2CCCC2(C)C)n1` [Compound 173], for which the pIC50 in assay [1] is greater than 8.00; in assay [2], 7.00 to 8.00.
For the compound `CC(O)c1cc2cnc(Nc3ccc(CN4CCN(C)CC4)cn3)nc2c(N2C3CCCC2CC3)n1` (stereo not shown) [Compound 174], the pIC50 in assay [1] is greater than 8.00; in assay [2], no more than 7.00.
With `C[C@@H](O)c1cc2cnc(Nc3ccc4c(n3)CCN(C3CNC3)C4)nc2c(N2CCCCC2)n1` [Compound 175], the pIC50 was greater than 8.00 in assay [1] and no more than 7.00 in assay [2].
For `C[C@@H](O)c1cc2cnc(Nc3ccc4c(n3)CCN(C3CN(CCO)C3)C4)nc2c(N2CCCCC2)n1` [Compound 176], the pIC50 in assay [1] is greater than 8.00; in assay [2], no more than 7.00.
For `C[C@@H](O)c1cc2cnc(Nc3ccc(CN4CCN(C)CC4)cn3)nc2c(N2CCCOCC2)n1` [Compound 177] the same measures were greater than 8.00 and no more than 7.00.
Consider `C[C@@H](O)c1cc2cnc(Nc3ccc(CN4CCN(CCO)CC4)cn3)nc2c(N2CCCOCC2)n1` [Compound 178], for which the pIC50 was greater than 8.00 in assay [1] and no more than 7.00 in assay [2].
For the compound `C[C@@H](O)c1cc2cnc(Nc3ccc(CN4CCN(C)CC4)cn3)nc2c(N2CCC[C@H](F)C2)n1` [Compound 179], the pIC50 is greater than 8.00 in assay [1] and no more than 7.00 in assay [2].
As for `C[C@@H](O)c1cc2cnc(Nc3ccc(CN4CCN(CCO)CC4)cn3)nc2c(N2CCC[C@H](F)C2)n1` [Compound 180], the results for the pIC50 in assay [1] and in assay [2] were greater than 8.00 and no more than 7.00, respectively.
In the case of `C[C@@H](O)c1cc2cnc(Nc3ccc(CN4CCN(CCO)CC4)cn3)nc2c(N2CC[C@H](F)C2)n1` [Compound 181], the results for the pIC50 in assay [1] and in assay [2] were 7.00 to 8.00 and no more than 7.00, respectively.
For `C[C@@H](O)c1cc2cnc(Nc3ccc(CN4CCN(CCO)CC4)cn3)nc2c(N2CC[C@@H](F)C2)n1` [Compound 182], the pIC50 was greater than 8.00 in assay [1] and no more than 7.00 in assay [2].
For `C[C@H](O)CN1CCN(Cc2ccc(Nc3ncc4cc([C@@H](C)O)nc(N5CCCCC5)c4n3)nc2)CC1` [Compound 183, (S)-1-(4-((6-((6-((R)-1-hydroxyethyl)-8-(piperidin-1-yl)pyrido[3,4-d]pyrimidin-2-yl)amino)pyridin-3-yl)methyl)piperazin-1-yl)propan-2-ol], the pIC50 in assay [1] is greater than 8.00; in assay [2], no more than 7.00.
For `Cc1nc(Nc2ncc3cc([C@@H](C)O)nc(N4C5CCC4CC5)c3n2)ccc1N1CCN(C)CC1` [Compound 185], the pIC50 in assay [1] is greater than 8.00; in assay [2], no more than 7.00.
Take `C[C@@H](O)c1cc2cnc(Nc3ccc(CN4CCN(C)C[C@@H]4C)cn3)nc2c(N2CCCCC2)n1` [Compound 186]: the pIC50 in assay [1] is greater than 8.00; in assay [2] it was no more than 7.00.
On to `C[C@@H](O)c1cc2cnc(Nc3ccc(CN4CCN(C)C[C@@H]4C)cn3)nc2c(N2C3CCC2CC3)n1` [Compound 187], for which the pIC50 was greater than 8.00 in assay [1] and no more than 7.00 in assay [2].
Consider `C[C@@H](O)c1cc2cnc(Nc3ccc(CN4CCN(C)[C@@H](C)C4)cn3)nc2c(N2CCCCC2)n1` [Compound 188], for which the pIC50 in assay [1] is greater than 8.00; in assay [2], no more than 7.00.
With `C[C@@H](O)c1cc2cnc(Nc3ccc(CN4CCN(C)[C@@H](C)C4)cn3)nc2c(N2C3CCC2CC3)n1` [Compound 189], the values for the pIC50 in assay [1] and in assay [2] were greater than 8.00 and no more than 7.00, respectively.
Take `C[C@@H](O)c1cc2cnc(Nc3ccc(CN4CCN(CCO)CC4)cn3)nc2c(-c2ccccc2)n1` [Compound 190]: the figures for the pIC50 in assay [1] and in assay [2] were 7.00 to 8.00 and no more than 7.00, respectively.
Consider `C[C@@H](O)c1cc2cnc(Nc3ccc(N4CCNCC4=O)cn3)nc2c(-c2ccccc2)n1` [Compound 191], for which the values for the pIC50 in assay [1] and in assay [2] were 7.00 to 8.00 and no more than 7.00, respectively.
As to `C[C@H](CO)c1cc2cnc(Nc3ccc(N4CCNCC4=O)cn3)nc2c(N2CCCCC2)n1` [Compound 192], the pIC50 was 7.00 to 8.00 in assay [1] and no more than 7.00 in assay [2].
As to `C[C@H](CO)c1cc2cnc(Nc3ccc4c(n3)CCN(CCO)C4)nc2c(N2CCCCC2)n1` [Compound 193], the pIC50 was 7.00 to 8.00 in assay [1] and no more than 7.00 in assay [2].
For the compound `C[C@@H](CO)c1cc2cnc(Nc3ccc(N4CCNCC4=O)cn3)nc2c(N2CCCCC2)n1` [Compound 194], the pIC50 in assay [1] is greater than 8.00; in assay [2], no more than 7.00.
For `C[C@H](CO)c1cc2cnc(Nc3ccc(CN4CCN(CCO)CC4)cn3)nc2c(N2CCCCC2)n1` [Compound 195] the same measures were 7.00 to 8.00 and no more than 7.00.
On to `C[C@@H](O)c1cc2cnc(Nc3ccc4c(n3)CCN(CC#N)C4)nc2c(N2CCCCC2)n1` [Compound 196], for which the pIC50 in assay [1] was 7.00 to 8.00; in assay [2], no more than 7.00.
For `C[C@@H](O)c1cc2cnc(Nc3ccc4c(n3)CCN(CC3COC3)C4)nc2c(N2CCCCC2)n1` [Compound 197] the same measures were 7.00 to 8.00 and no more than 7.00.
For `C[C@@H](O)c1cc2cnc(Nc3ccc(CN4CCN(C)CC4)cn3)nc2c(N2CCC[C@@H](F)C2)n1` [Compound 198] the same measures were greater than 8.00 and no more than 7.00.
Turning to `C[C@@H](O)c1cc2cnc(Nc3ccc(CN4CCN(CCO)CC4)cn3)nc2c(N2CCC[C@@H](F)C2)n1` [Compound 199], the pIC50 in assay [1] was greater than 8.00; in assay [2] it was no more than 7.00.
For `C[C@@H](O)c1cc2cnc(Nc3ccc4c(n3)CCN(C3CN(C)C3)C4)nc2c(N2CCCCC2)n1` [Compound 200] the same measures were greater than 8.00 and no more than 7.00.
For `C[C@@H](O)c1cc2cnc(Nc3ccc4c(n3)CN(CCO)C4)nc2c(N2CCCCC2)n1` [Compound 201] the same measures were greater than 8.00 and no more than 7.00.
For `C[C@H](O)Cc1cc2cnc(Nc3ccc(CN4CCN(CCO)CC4)cn3)nc2c(N2CCCCC2)n1` [Compound 202], in that order: 7.00 to 8.00 and no more than 7.00.
For the compound `C[C@H](O)Cc1cc2cnc(Nc3ccc(N4CCNCC4=O)cn3)nc2c(N2CCCCC2)n1` [Compound 203], the pIC50 was greater than 8.00 in assay [1] and no more than 7.00 in assay [2].
With `C[C@H](O)Cc1cc2cnc(Nc3ccc4c(n3)CCN(CCO)C4)nc2c(N2CCCCC2)n1` [Compound 204], the pIC50 in assay [1] was 7.00 to 8.00; in assay [2], no more than 7.00.
On to `c1cc(Nc2ncc3cc(C4CCOC4)nc(N4C5CCC4CC5)c3n2)ncc1CN1CCNCC1` (stereo not shown) [Compound 205], for which the pIC50 in assay [1] is greater than 8.00; in assay [2], no more than 7.00.
For `c1cc(Nc2ncc3cc(C4CCOC4)nc(N4CCCCC4)c3n2)ncc1CN1CCNCC1` (stereo not shown) [Compound 206] the same measures were greater than 8.00 and no more than 7.00.
`c1cc(N2CCNCC2)nnc1Nc1ncc2cc(C3CCOC3)nc(N3C4CCC3CC4)c2n1` (stereo not shown) [Compound 207]: the values for the pIC50 in assay [1] and in assay [2] were greater than 8.00 and no more than 7.00, respectively.
For `c1cc(N2CCNCC2)nnc1Nc1ncc2cc(C3CCOC3)nc(N3CCCCC3)c2n1` (stereo not shown) [Compound 208] the same measures were greater than 8.00 and no more than 7.00.

These data come from patent publication US11084814B2, “Pyrido[3, 4-d]pyrimidine derivative and pharmaceutically acceptable salt thereof” (Teijin Pharma Limited, priority 2016, dated 2021).
